Data on 19 compounds can be found in ChEMBL document CHEMBL5726682, “Autotaxin inhibitor compounds” (2017).

Broadly, the IC50 is the concentration that gives 50% inhibition.

The target in the assay is Autotaxin (Homo sapiens, UniProt Q13822). In words: Inhibition Assay: ATX activity is assayed in concentrated conditioned media from Hep3B human hepatocellular carcinoma cells by measuring the amount of choline released from the substrate, lysophosphatidylcholine (LPC) as it is cleaved to LPA. Conditioned media is collected from confluent Hep3B cells and concentrated 20-fold using Centriprep-30 filter devices (Millipore). To assay for autotaxin inhibition, 10-20 μL of the concentrated conditioned media is incubated with 2.5 μL of a test compound in DMSO and 72.5-82.5 μL lyso-PLD buffer (100 mM Tris pH 9, 500 mM NaCl, 5 mM MgCl2, 5 mM CaCl2, 0.05% Triton X-100 in the presence or absence of 0.2% fatty-acid-free human serum albumin) for 15 min at 37° C. After the 15 min incubation, 5 uL of 2 mM LPC (14:0; Avanti Polar Lipids Cat#855575C) diluted in lyso-PLD buffer is added for a final concentration of 100 uM and the incubation continues for 1.5-3 hours at 37° C. 100 μL of a color mix containing 4.5 mM 4-aminoantipyrine, 2.7 mM N-ethyl-N-(2-hydroxy-3-sulfopropyl)-m-toluidine, 21 units/ml horseradish peroxidase and 3 units/mL choline oxidase in 50 mM Tris, pH 8, 4.5 mM MgCl2 is added and the incubation continued for 15 minutes at room temperature before reading the absorbance at 555 nm.
`Cc1c(Sc2cccc(C(=O)O)c2)c2ccc(Cl)c(F)c2n1CC(=O)N1CCC2(COC2)C1`: the IC50 was under 500 nM. Consider `Cc1c(Sc2cccc(C(=O)O)c2)c2ccc(Cl)c(F)c2n1CC(=O)N1CCc2c(F)cccc21`, for which the IC50 was under 500 nM. The figure for `O=C(O)c1cccc(Sc2c(C3CC3)n(CC(=O)N3CCC(O)(C(F)(F)F)C3)c3c(F)c(Cl)ccc23)c1F` (centres undefined) is under 500 nM.

As for `Cc1c(Sc2cccc(C(=O)O)c2)c2ccc(Cl)c(F)c2n1CC(=O)N1CCc2ccc(C(F)(F)F)cc21`, the IC50 is under 500 nM. Turning to `O=C(O)c1cccc(Sc2c(Cl)n(CC(=O)N3CC4(CC4)c4ccccc43)c3c(F)c(Cl)ccc23)c1F`, the IC50 is under 500 nM. For `O=C(O)c1cccc(Sc2c(C3CC3)n(CC(=O)N3CC4(CCC4)c4ccccc43)c3c(F)c(Cl)ccc23)c1F`, the IC50 is under 500 nM. For the compound `Cc1c(Sc2cccc(C(=O)O)n2)c2ccc(Cl)c(F)c2n1CC(=O)N1CCC2(CC1)CNC(=O)O2`, the IC50 is under 500 nM.

Regarding `O=C(O)c1cccc(Sc2c(Cl)n(CC(=O)N3CCC(O)(C(F)(F)F)C3)c3c(F)c(Cl)ccc23)c1F` (centres undefined), the IC50 is under 500 nM.

On to `Cc1c(Sc2cccc(C(=O)O)c2)c2ccc(Cl)c(F)c2n1CC(=O)N1CC2(CCN(C)CC2)C1`, for which the IC50 was under 500 nM. The figure for `Cc1c(Sc2cccc(C(=O)O)c2)c2ccc(Cl)c(F)c2n1CC(=O)N1CCC(c2cnn(C)c2)CC1` is under 500 nM; for `Cc1c(Sc2cccc(C(=O)O)n2)c2ccc(Cl)c(F)c2n1CC(=O)N1CCC(O)(C(F)(F)F)C1` (centres undefined) it is under 500 nM; for `Cc1c(Sc2cccc(C(=O)O)c2F)c2ccc(Cl)c(F)c2n1CC(=O)N1CCC(C(C)(C)O)C1` (centres undefined) it is under 500 nM.

As for `Cc1c(Sc2cccc(C(=O)O)c2)c2ccc(Cl)c(F)c2n1CC(=O)N1CCCCC1CCn1cccn1` (centres undefined), the IC50 is under 500 nM.

In the case of `Cc1c(Sc2cccc(C(=O)O)c2)c2ccc(Cl)cc2n1C(=O)NCc1ccccc1`, the IC50 was over 3000 nM. As for `O=C(O)c1cccc(Sc2c(C3CC3)n(CCN3CC4(CCC4)c4ccccc43)c3c(F)c(Cl)ccc23)c1F`, the IC50 is under 500 nM. On to `O=C(O)c1cccc(Sc2c(C3CC3)n(CC(=O)N3CC4(CC4)c4ccccc43)c3c(F)c(Cl)ccc23)c1F`, for which the IC50 is under 500 nM. `Cc1c(Sc2cccc(C(=O)O)c2)c2ccc(Cl)c(F)c2n1CC(=O)N1CC2(CCN(C)CC2)c2ccccc21`: the 50% inhibitory concentration (IC50) was under 500 nM. Then `Cc1c(Sc2cccc(C(=O)O)c2)c2ccc(Cl)c(F)c2n1CCC(=O)Nc1ccccc1`, with under 500 nM; and `Cc1c(Sc2cccc(C(=O)O)c2)c2ccc(Cl)c(F)c2n1CC(=O)N1CCC(C#N)C1` (centres undefined), with under 500 nM.
